The test system of data set [1] is P. hemolytica. Nature of the data set: Systemic infection model in mice, ED50, P. hemolytica. Type of data set: in vivo. To be noted: Mus musculus, sc, 144 h, 50% survival six days post infection, per day, read-out: ED50 (95% confidence limits). Here is the method: (§1) Experimental Infections and Antitiotic Treatment (for ED50 in mice tests).
(§2) Mice are infected and treated with the test antibiotic compound according to procedures described previously [Yancey, Jr., R. J. et at. supra].
(§3) The test antibiotic compound is administered subcutaneously immediately following infection, then at 24 hours and 48 hours post infection. The medium effective dose (ED50) number is determined for all infections. The ED50 value is defined as the calculated concentration of the test antibiotic compound in mg. of compound per kilogram of mouse body weight per day at which 50% of the animals survived six days post infection.

Data set [2] concerns Corynebacterium pyogenes. Nature of the data set: MIC, agar dilution, Corynebacterium pyogenes. The following applies: strain 213-2; read-out: MIC. The data set is classed as cell-based. Summed up:
(§4)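 Each organism receives an inoculum of approx. 10^3–10^4 CFU, taken from a 5% CO2 BHI subculture standardised to 0.5 McFarland and diluted 1:20. It is spotted on Mueller-Hinton agar containing the compound, then incubated for 16–18 h at 37 °C with CO2.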
(In general: Agar dilution tests growth on a series of plates holding different concentrations.)

Data set [3] is described as follows: Serum half life / duration of antibiotic action.
Data set [4] concerns Salmonella typhimurium. Description: Systemic infection model in mice, ED50, Salmonella typhimurium. Type of data set: in vivo. To be noted: Salmonella enterica, 144 h, 50% survival six days post infection, per day, read-out: ED50 (95% confidence limits). Here is the method: as §1, §2, §3
Data set [5] is described as follows: Stability of the compound. Type of data set: physicochemical.
Data set [6] relates to Micrococcus luteus. Nature of the data set: MIC, agar dilution, Micrococcus luteus. The data set is classed as cell-based. The following applies: Micrococcus luteus; strain UC130; read-out: MIC. Put shortly: as §4
[7] abbreviates: strain UC6531, subcutaneous, 0, 24, 48 hours post infection.
[8] abbreviates: strain UC6532, lactamase producing, subcutaneous, 0, 24, 48 hours post infection.
Setting [9] is: TYPHIMURIUM / UC6162, sc, strain UC6162, subcutaneous, 0, 24, 48 hours post infection.
Where [10] appears, read: TYPHIMURIUM / UC6164, sc, strain UC6164, lactamase producing, subcutaneous, 0, 24, 48 hours post infection.

Values after ≈ are worked out from the molar mass of the structure shown. Like-named read-outs stand apart in the source and are kept apart here. Some results are limits rather than exact numbers.

With `CO/N=C(\C(=O)N[C@@H]1C(=O)N2C(C(=O)O)=C(CS)CS[C@H]12)c1csc(N)n1` [Formula III compound, 3-mercaptomethyl-7β-[2-(2-amino-1,3-thiazol-4-yl)-(Z)-2-(methoxyimino)acetamido]ceph-3-em-4-carboxylic acid], the ED50 in data set [1] (setting [7]) worked out at 0.8 mg/kg; in data set [1] (setting [8]), 0.8 mg/kg; in data set [4] (setting [9]), 0.3 mg/kg; in data set [4] (setting [10]), 0.5 mg/kg. Further, in data set [2], the MIC worked out at 0.25 µg/mL. The “duration of antibiotic action” value in data set [3] (compared with ceftiofur) is on record as “biologically longer acting as an antibiotic than ceftiofur”. For the same compound, the serum half life result in data set [3] (inferred from results against Salmonella typhimurium) is listed as “longer serum half life”. For the same compound, the “stability in alkaline solution” value in data set [5] (alkaline solution) was “decomposes quickly”. In addition, in data set [5] (dry state, white powder), the “stability in the dry state” value is reported as “stable in the dry state”. For the same compound, in data set [5] (strongly acidic media), the “stability in strongly acidic media” value is on record as “converted to the 3,4-thio-lactone derivative”.
For the compound `CO/N=C(\C(=O)N[C@@H]1C(=O)N2C(C(=O)O)=C(CSC(=O)c3ccco3)CS[C@H]12)c1csc(N)n1` [ceftiofur, 7-[2-(amino-1,3-thiazol-4-yl)-2-(methoxyimino)acetamido]-3-[(fur-2-ylcarbonyl)thiomethyl]-3-cephem-4-carboxylic acid, reference compound], the ED50 came out at 0.8 mg/kg in data set [1] (setting [7]), 0.9 mg/kg in data set [1] (setting [8]), 0.4 mg/kg in data set [4] (setting [9]) and 0.5 mg/kg in data set [4] (setting [10]). For the same compound, the MIC in data set [2] was less than 0.06 µg/mL; in data set [6], 0.25 µg/mL (≈ 0.477 µM).
As to `CO/N=C(\C(=O)N[C@@H]1C(=O)N2C(C(=O)O)=C(CO)CS[C@H]12)c1csc(N)n1` [desacetyl cefotoxime, 7-[2-(2-amino-1,3-thiazol-4-yl)-(syn)-2-methoxyiminoacetamido]-3-hydroxymethylceph-3-em-4-carboxylic acid, reference compound], the ED50 was 0.3 mg/kg in data set [1] (setting [7]), 0.6 mg/kg in data set [1] (setting [8]), 0.8 mg/kg in data set [4] (setting [9]) and 1 mg/kg in data set [4] (setting [10]). For the same compound, the MIC in data set [2] came out at 0.25 µg/mL (≈ 0.605 µM).

Usually ED50 stands for the midpoint of the dose-response relation. One may read the MIC as the least concentration at which growth counts as inhibited.
